Assay results: paper PMC4658182, “The Synthetic Antimicrobial Peptide 19-2.5 Interacts with Heparanase and Heparan Sulfate in Murine and Human Sepsis” (PLoS ONE, 2015)
Where two headings read alike, the source gives them in different places.

How the values were obtained:
[1] = tested on: heparanase; experiment: Relative heparanase mRNA expression in organs (qPCR), CLP septic mice; assay type: in vivo, murine; conditions: 24 h after CLP
Description: The murine model of polymicrobial sepsis was divided into three steps as described before. Briefly, in a first step 12 NMRI mice underwent a catheterization procedure under general (isoflurane 1% to 2% in oxygen/air mix with a FiO2 of 0.3) and local (0.2 ml lidocaine 2%) anesthesia. A central vein catheter (PE-tube, self-made) was implanted in the jugular vein. After further local infiltration with lidocaine, the neck was closed by single suture. To prevent hypothermia all animals were kept on a heating pad throughout the surgical procedure. Mice were transferred back into the cage to rest for 48h. The i.v.-line was connected to the syringe pump at a rate of 100 μl/h (NaCl 0.9%).
In a second step, general and local anesthesia for cecal ligature and puncture (CLP) was performed as described above. The animal were transferred to the cage and reconnected with the i.v.-line. Depending on the group, peptide 19–2.5 infusion (20 μg/ml, 100 μl/h) or NaCl 0.9% infusion (100 μl/h) was started.
Finally, in a third step all animals were killed 24 h after CLP. Therefore, the animals were anesthetized as described above, brought to a prone position and the abdomen and thorax were opened. Blood was sampled in pre-citrated syringes. Directly after killing the animal under general anesthesia by cervical dislocation heart, liver, lung, kidney and spleen were snap-frozen in liquid […] until further procedures.
As described before, total RNA was extracted from snap-frozen tissue (RNeasy Mini Kit, Qiagen, Hilden, Germany) and reverse transcribed to cDNA (Quanti Tec, Rev Transcription Kit, Qiagen, Hilden, Germany). cDNA was analyzed by quantitative real-time PCR performed with Power SYBR Green PCR Master Mix on a StepOnePlus (all Applied Biosystems, Foster City, CA, USA) using a mouse specific primer (biomers, Ulm, Germany) for heparanase 5’-[…]-3’ (for) and 5’-[…]-3’ (rev). Beta-actin was used as an endogenous normalization control: 5’-[…]-3’ (for), 5’-CGG ATGTCAACGTCACACTT-3’ (rev). […]
All data are given as mean ± standard deviation (SD). As described recently, the PCR-derived mRNA expressions were analyzed using a relative expression software tool (REST, (http://www.gene-quantification.de/rest.html, rest-mcs-beta-9august 2006) performing a randomization test. This tool avoids assumptions on distributions and applies a pair wise fixed reallocation randomization test, which reallocates control and sample groups (= pair wise fixed reallocation). The expression ratios are calculated on the basis of the mean crossing point (CP) values for reference and target genes. We used a multiple t-test with Holm-Šídák correction when comparing differences between groups. […]

[2] = Isothermal titration calorimetry, binding to HS-fragments; conditions: ITC; for Ka binding constant / Kd / N stoichiometry of binding / ΔG Gibbs free energy / ΔS entropy change: 2 mM peptide titrated 20 times 1.5 μl into 100 μg/ml HS
Description: Isothermal titration calorimetry (ITC) experiments were performed as previously described. Briefly, the binding of peptide 19–2.5 to heparanase or HS-fragments was recorded by measuring the enthalpy change of the reaction at 37°C. For this, a total of 100 μg/ml heparanase (R&D Systems Europe Ltd., Abingdon, United Kingdom) and 200 μg/ml HS-fragments (H7640 Sigma-Aldrich, St. Louis, MO, USA) were dispersed into the calorimetric cell, and 2 mM peptide 19–2.5 was titrated to this dispersion stepwise in 3 μl portions. After exploring experiments, the concentration of HS was 100 μg/ml titrated with 1.5 μl of peptide 19–2.5 (2 mM) 20 times at 37°C.
Fig 5 Isothermal titration calorimetry (ITC). For the ITC experiments, 2 mM peptide 19–2.5 was titrated to this dispersion stepwise in 3 μl portions into (A) 200 μg/ml heparan sulfate-fragments (HS) and (B) 100 μg/ml heparanase (Hep). In each titration, the resulting heat signals P were recorded (peak downwards are exothermic, peaks upwards endothermic reactions) against time (min) and presented in the top parts of Fig 5A and 5B. The integrated enthalpy changes ΔH versus [peptide]:[HS-fragments] (A) and [peptide]:[heparanase] (B) concentration ratios of the single titrations are illustrated in the bottom parts of Fig 5A and 5B.

[3] = tested on: pro-inflammatory cytokines; CD14; conditions: CLP-mice, cited from earlier work
From the text: Several studies report an up to 10-fold increase of heparanase expression after stimulation with pro-inflammatory cytokines. […] Accordingly, we detected organ-specific differences of heparanase levels that m ...

[4] = tested on: mice; conditions: cited from earlier work
From the text: (§1) The synthetic antimicrobial peptide 19–2.5 belongs to the class of synthetic anti-lipopolysaccharide peptides (SALP = synthetic anti-LPS peptides). […] We recently reported that peptide 19–2.5 is able to decrease the inflammatory response in murine cells stimulated with both PAM ...

[5] = tested on: Gram-negative and Gram-positive bacteria as well as against viruses; conditions: cited from earlier work
From the text: as §1

[6] = 37°C, 2 mM peptide in 3 μl portions into 200 μg/ml HS-fragments, Fig 5A

Q: With “peptide 19–2.5: synthetic antimicrobial peptide 19–2.5 belongs to the class of synthetic anti-lipopolysaccharide peptides (SALP = synthetic anti-LPS peptides)” as the substance, how does the “heparanase mRNA expression under peptide treatment” value ([1]; all investigated organ tissues (heart, liver, lung, kidney, spleen), CLP-mice, 20 μg/ml, 100 μl/h i.v., Fig 2) read?
A: Its value is “decreased heparanase mRNA expression in all investigated organ tissues”.

Q: And the “relative heparanase mRNA expression, untreated CLP-mice vs peptide-treated” value (“relative heparanase mRNA expression” below) ([1]; kidney, increase in untreated CLP-mice vs peptide 19–2.5 (20 μg/ml, 100 μl/h i.v., n = 6 per group), normalized to ß-actin, mean ± SD, Fig 2E)?
A: Its value is 5.7±1.9 fold.

Q: What about the “relative heparanase mRNA expression” value ([1]; lung, liver, spleen, heart and kidney, result in words, 20 μg/ml, 100 μl/h i.v., n = 6 per group, Fig 2A–2E, **p < 0.01, ***p < 0.0001) of the same substance?
A: Its value is “significantly higher in untreated CLP-mice compared to mice treated with peptide 19–2.5”.

Q: And the “relative heparanase mRNA expression” value ([1]; lung, increase in untreated CLP-mice vs peptide 19–2.5 (20 μg/ml, 100 μl/h i.v., n = 6 per group), normalized to ß-actin, mean ± SD, Fig 2A)?
A: Its value is 2.2±2.2 fold.

Q: What about the “[Peptide 19–2.5]:[HS] weight ratio at saturation” value [2, 6] of the same substance?
A: Its value is about 0.6.

Q: And the “heat of reaction on titration to HS-fragments” value [2, 6]?
A: The value was “high exothermic reaction”.

Q: What about the Ka binding constant ([2]; 37°C, experiment 1) of the same substance?
A: Its Ka binding constant is 1.93e+06 M⁻¹.

Q: And the Kd ([2]; 37°C, experiment 1)?
A: Its Kd is 518 nM.

Q: And the “N stoichiometry of binding” value ([2]; 37°C, experiment 1)?
A: Its value is 0.511 w/w ratio.

Q: And the “ΔG Gibbs free energy” value ([2]; 37°C, experiment 1)?
A: Its value is -8.918 kcal/mol.

Q: What about the ΔS entropy change ([2]; 37°C, experiment 1) of the same substance?
A: Its ΔS entropy change is 4.46 cal/mol/K.

Q: What about the Ka binding constant ([2]; 37°C, experiment 2) of the same substance?
A: The Ka binding constant was 1.52e+07 M⁻¹.

Q: What about the Kd ([2]; 37°C, experiment 2) of the same substance?
A: The Kd was 65.7 nM.

Q: And the “N stoichiometry of binding” value ([2]; 37°C, experiment 2)?
A: The value was 0.475 w/w ratio.

Q: What about the “ΔG Gibbs free energy” value ([2]; 37°C, experiment 2) of the same substance?
A: Its value is -10.192 kcal/mol.

Q: What about the ΔS entropy change ([2]; 37°C, experiment 2) of the same substance?
A: The ΔS entropy change was 6.42 cal/mol/K.

Q: What about the Ka binding constant ([2]; 37°C, experiment 3) of the same substance?
A: Its Ka binding constant is 1.55e+07 M⁻¹.

Q: What about the Kd ([2]; 37°C, experiment 3) of the same substance?
A: The Kd was 64.5 nM.

Q: And the “N stoichiometry of binding” value ([2]; 37°C, experiment 3)?
A: The value was 0.547 w/w ratio.

Q: What about the “ΔG Gibbs free energy” value ([2]; 37°C, experiment 3) of the same substance?
A: The value was -10.201 kcal/mol.

Q: And the ΔS entropy change ([2]; 37°C, experiment 3)?
A: The ΔS entropy change was 10.8 cal/mol/K.

Q: And the Ka binding constant ([2]; 37°C, experiment 4)?
A: Its Ka binding constant is 1.2e+07 M⁻¹.

Q: And the Kd ([2]; 37°C, experiment 4)?
A: The Kd was 83.3 nM.

Q: And the “N stoichiometry of binding” value ([2]; 37°C, experiment 4)?
A: The value was 0.534 w/w ratio.

Q: And the “ΔG Gibbs free energy” value ([2]; 37°C, experiment 4)?
A: Its value is -10.046 kcal/mol.

Q: What about the ΔS entropy change ([2]; 37°C, experiment 4) of the same substance?
A: Its ΔS entropy change is 6.77 cal/mol/K.

Q: What about the Ka binding constant ([2]; 37°C, mean of n = 4) of the same substance?
A: Its Ka binding constant is 1.12e+07 M⁻¹.

Q: What about the “N stoichiometry of binding” value ([2]; 37°C, mean of n = 4) of the same substance?
A: The value was 0.520 w/w ratio.

Q: And the “ΔG Gibbs free energy” value ([2]; 37°C, mean of n = 4)?
A: Its value is -9.839 kcal/mol.

Q: And the ΔS entropy change ([2]; 37°C, mean of n = 4)?
A: The ΔS entropy change was 7.11 cal/mol/K.

Q: And the Kd ([2]; 37°C, mean of n = 4, read-out: Kd)?
A: The Kd was 89.2 nM.

Q: And the “titration curve shape with HS-fragments” value ([2]; Fig 5A)?
A: Its value is “S-shaped curve with saturation characteristic for a complex formation”.

Q: What about the “mRNA expression of CD14” value ([3]; differences between organs) of the same substance?
A: Its value is “decreases mRNA expression of CD14”.

Q: And the “levels of pro-inflammatory cytokines” value [3]?
A: The value was “decreases levels of pro-inflammatory cytokines in CLP-mice”.

Q: What about the “protection from lethal septic shock” value [4] of the same substance?
A: The value was “protects mice from lethal septic shock”.

Q: What about the anti-inflammatory activity [5] of the same substance?
A: The anti-inflammatory activity was “shows anti-inflammatory activity against Gram-negative and Gram-positive bacteria as well as against viruses”.
